Here are results for three molecules from patent US20240287046A1, “COMPOUNDS AND RADIOLIGANDS FOR TARGETING NEUROTENSIN RECEPTOR AND USES THEREOF” (Full-Life Technologies HK Limited, priority 2022, published 2024).

Data set [1] concerns ASPC-1 tumor-bearing mice. Put plainly: Biodistribution of radionuclide labeled complexes in ASPC-1 tumor-bearing mice. Particulars: ^177Lu-labeled complex. It is filed as in vivo, BALB/c nude mice. Put shortly:
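Radiolabeled compound (~30-50 μCi, ~1.11-1.85 MBq, specific activity 30-250 μCi/nmol) was injected i.v. via tail vein into nude mice carrying 0.05-0.50 g subcutaneous NTSR-1-positive human tumors. At set times, tissues were collected, weighed and γ-counted; % ID and % ID/g were calculated.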

For data set [2], the target named is T1, human NTSR-1 (Homo sapiens (Human), UniProt P30989). As to the kind of experiment: FLIPR assay, inhibition of Neurotensin-induced intracellular-calcium mobilization. It is filed as cell-based. Particulars: for IC50 compared to comparator compound C-2: FLIPR assay; for IC50: HEK293 cells stably expressing human NTSR-1, mean, read-out: IC50 (nM) in FLIPR Assays. The method, then:
Binding affinities of the representative compounds were also evaluated by FLIPR assay. Neurotensin receptor 1 belongs to the G-protein coupled receptors (GPCR) family. Activation of NTSR-1 by its ligand Neurotensin can induce intracellular-calcium mobilization. In FLIPR assay, the test compound and Neurotensin were incubated together with cells expressing NTSR-1 to measure inhibition of the intracellular-calcium mobilization by the test compound so that to evaluate its binding affinity.
Briefly, HEK293 cells stably expressing human NTSR-1 were plated in 384-well plates. 20 ul cell suspension at a concentration of 10×10^5 per ml was seeded in each well and incubated at 37° C. 5% CO2 overnight. Then the cells in each well were mixed with 20 ul probenecid assay buffer, 20 ul 8 uM Fluo-4 Direct™ Loading Buffer, 6×EC80 of Neurotensin and 10 μl of the diluted test compound, and incubated at 37° C. 5% CO2 for 50 min followed by incubation at room temperature for 10 min. The plate was then subject to FLIPR analysis.

Data set [3] has as its target T1, human NTSR-1. Put plainly: radioligand competitive binding assay using ^177Lu labeled C-1 as reference radioligand. Particulars: Mean IC50 of C-1/Mean IC50 of the test compound. The method, then:
The binding affinities of test compounds were determined by a radioligand competitive binding assay using ^177Lu labeled C-1 as the reference radioligand.
Briefly, 100 μL HT-29 cells expressing human NTSR-1 at a density of 1˜2×10^6 cells/mL were mixed with binding buffer (RPMI-1640 medium supplemented with 0.25% bovine serum albumin) in each well of the 96-well filter plate (Millipore). Then the cells in each well were incubated with ^177Lu—C-1 (0.55 μCi/well) and the test compound under 37° C. for 1 hr (n=3). After incubation, unbound ^177Lu—C-1 and the test compound in each well was removed by filtration using a Multiscreen vacuum manifold (Millipore) and the cells were further rinsed with the binding buffer for 5 times. The cells from each well were then collected and radioactivity of the cells in each well was individually measured by y counter (2480 WIZARD2, PerkinElmer). The best-fit IC50 value of test compounds (inhibitory concentration when 50% of the bound ^177Lu—C-1 on cells were displaced) were calculated by fitting the data with nonlinear regression using GraphPad Prism 8.0.1.

T1 sequence (P30989 whole entry): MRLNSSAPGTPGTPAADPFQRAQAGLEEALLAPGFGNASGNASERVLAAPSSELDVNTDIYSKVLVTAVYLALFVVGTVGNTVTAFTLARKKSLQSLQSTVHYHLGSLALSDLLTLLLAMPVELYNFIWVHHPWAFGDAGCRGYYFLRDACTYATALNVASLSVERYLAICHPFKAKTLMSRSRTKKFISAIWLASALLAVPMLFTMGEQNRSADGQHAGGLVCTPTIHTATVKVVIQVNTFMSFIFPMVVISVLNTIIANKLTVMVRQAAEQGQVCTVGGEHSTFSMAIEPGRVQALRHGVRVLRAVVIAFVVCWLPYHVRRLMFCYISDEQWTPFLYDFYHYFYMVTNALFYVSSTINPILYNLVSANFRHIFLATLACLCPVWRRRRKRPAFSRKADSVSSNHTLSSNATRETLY

One may read the IC50 as the concentration needed to halve the response being measured. Consider `COc1cccc(OC)c1-c1cc(C(=O)NC2(C(=O)O)C3CC4CC(C3)CC2C4)nn1-c1ccc(NC(=O)CCCN(C)CCCN(C)C(=O)CN2CCN(CC(=O)O)CCN(CC(=O)O)CCN(CC(=O)O)CC2)cc1C(C)C` (centres unmarked) [Compound I-5, 2,2′,2″-(10-(2-((3-((4-((4-(3-((2-carboxyadamantan-2-yl)carbamoyl)-5-(2,6-dimethoxyphenyl)-1H-pyrazol-1-yl)-3-isopropylphenyl)amino)-4-oxobutyl)(methy)amino)propyl)(methyl)amino)-2-oxoethyl)-1,4,7,10-tetraazacyclododecane-1,4,7-triyl)triacetic acid], for which, in data set [1], the “AUC (0-72 h) ratio Tumor/Blood” value is on record as 10.0, the “AUC (0-72 h) ratio Tumor/Kidney” value came out at 14.2, the “AUC (0-72 h) ratio Tumor/Liver” value was 16.7 and the “AUC (0-72 h) ratio Tumor/Lung” value was 48.3. On human NTSR-1 [2], the “IC50 compared to comparator compound C-2” value was “lower IC50” and the IC50 amounted to 26.9 nM. Also, the “Relative Binding Affinity” value at human NTSR-1 [3] stood at 146.4.
On to `COc1cccc(OC)c1-c1cc(C(=O)NC2(C(=O)O)C3CC4CC(C3)CC2C4)nn1-c1ccc(N(CCCN(C)C)C(=O)COCCOCCNC(=O)CN2CCN(CC(=O)O)CCN(CC(=O)O)CCN(CC(=O)O)CC2)cc1C(C)C` (centres unmarked) [Compound I-6], for which, on human NTSR-1 [2], the “IC50 compared to comparator compound C-2” value is “lower IC50” and the IC50 stood at 16.2 nM. Further, at human NTSR-1 [3], the “Relative Binding Affinity” value is 3.1.
`COc1cccc(OC)c1-c1cc(C(=O)NC2(C(=O)O)C3CC4CC(C3)CC2C4)nn1-c1ccc(OCCCN(C)CCCN(C)C(=O)CN2CCN(CC(=O)O)CCN(CC(=O)O)CCN(CC(=O)O)CC2)cc1C(C)C` (centres unmarked) [Compound I-7, 2,2′,2″-(10-(2-((3-((3-(4-(3-((2-carboxyadamantan-2-yl)carbamoyl)-5-(2,6-dimethoxyphenyl)-1H-pyrazol-1-yl)-3 isopropylphenoxy)propyl)(methyl)amino)propyl)(methyl)amino)-2-oxoethyl)-1,4,7,10-tetraazacyclododecane-1,4,7-triyl)triacetic acid]: in data set [1], the “AUC (0-72 h) ratio Tumor/Blood” value amounted to 34.4, the “AUC (0-72 h) ratio Tumor/Kidney” value amounted to 18.1, the “AUC (0-72 h) ratio Tumor/Liver” value is on record as 23.1 and the “AUC (0-72 h) ratio Tumor/Lung” value is on record as 40.1. For the same molecule, on human NTSR-1 [2], the “IC50 compared to comparator compound C-2” value is “lower IC50” and the IC50 worked out at 11.7 nM. In addition, at human NTSR-1 [3], the “Relative Binding Affinity” value is given as 156.7.
